Laboratory results as given in patent publication US7714146B2, “Azulene-oxindole compounds as multiple-kinase inhibitors and useful as anticancer agents” (Industrial Technology Research Institute, priority 2006, dated 2010).

What was measured:
Format in all cases: biochemical
[1] = molecular target: T1, human FLT-3 (Arg571-Ser993) (Homo sapiens, UniProt P36888); assay: FLT-3 kinase assay (HTScan kit, DELFIA); conditions: for inhibition at 1 µM: compound at 1 μM, read-out: FLT-3 1 μM, % of inhibition relative to control; for inhibition at 0.1 µM: compound at 0.1 μM, read-out: FLT-3 0.1 μM, % of inhibition relative to control; for IC50: read-out: FLT-3 kinase inhibition (IC50)
T1 construct: human FLT-3 (Arg571-Ser993); GST (N); purchased Cell Signaling Technology; host or cells: baculovirus expression system
T1 sequence (P36888 571-993): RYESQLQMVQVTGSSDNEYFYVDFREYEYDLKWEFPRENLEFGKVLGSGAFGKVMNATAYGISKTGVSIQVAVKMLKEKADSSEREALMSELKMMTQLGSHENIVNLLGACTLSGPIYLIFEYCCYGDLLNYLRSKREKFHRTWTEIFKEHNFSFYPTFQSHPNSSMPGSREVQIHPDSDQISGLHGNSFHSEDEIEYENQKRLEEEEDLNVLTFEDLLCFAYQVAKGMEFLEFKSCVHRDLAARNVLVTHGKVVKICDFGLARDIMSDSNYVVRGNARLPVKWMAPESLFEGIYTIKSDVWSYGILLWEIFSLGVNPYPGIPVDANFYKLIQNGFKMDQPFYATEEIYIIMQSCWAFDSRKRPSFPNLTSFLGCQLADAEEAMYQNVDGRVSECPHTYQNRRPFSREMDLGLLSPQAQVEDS
Procedure: (§1) Compounds 1-100 were treated for their efficacy in inhibiting activities of FLT-3, c-KIT, KDR/Flk-1, PDGFR-beta, EGFR, and PKC kinases by biochemical DELFIA (Dissociation Enhanced Lanthanide FIA) assays according to the procedure described below. The assays were conducted by, Division of Cell Engineering, Biomedical Engineering Research Laboratories, Industrial Technology Research Institute, Bldg. 53, 195, sec. 4, Chung Hsing Rd. Chutung, Hsinchu, Taiwan 310, R.O.C.
(§2) The FLT-3 assay was conducted following the protocol described in Protocol for HTScan® FLT-3 Kinase Assay Kit (Cell Signaling Technology®). The assay was conducted under the following conditions: FLT-3 source: The GST-kinase fusion protein was produced using a baculovirus expression system with a construct expressing human FLT-3 (Arg571-Ser993) (GenBank accession No. NM_004119) with an amino-terminal GST tag, substrate: 1.5 μM Gastrin Precursor Biotinylated Peptide (with Tyr87 as phosphorylation site), vehicle: 1% DMSO, pre-incubation time/temperature: 5 minutes at room temperature, incubation time/temperature: 30 minutes at room temperature, incubation buffer: 60 mM HEPES pH 7.5, 5 mM MgCl2, 5 mM MnCl2, 3 μM Na3VO4, 1.25 mM DTT, 20 μM ATP, and quantitative method: DELFIA® Assay.

[2] = molecular target: T2, human EGFR (His672-Ala1210) (Homo sapiens, UniProt P00533); assay: EGFR kinase assay (HTScan kit, DELFIA); conditions: for inhibition at 0.1 µM: compound at 0.1 μM, read-out: EGFR 0.1 μM, % of inhibition relative to control
T2 construct: human EGFR (His672-Ala1210); GST (N); purchased Cell Signaling Technology; host or cells: baculovirus expression system
T2 sequence (P00533 672-1210): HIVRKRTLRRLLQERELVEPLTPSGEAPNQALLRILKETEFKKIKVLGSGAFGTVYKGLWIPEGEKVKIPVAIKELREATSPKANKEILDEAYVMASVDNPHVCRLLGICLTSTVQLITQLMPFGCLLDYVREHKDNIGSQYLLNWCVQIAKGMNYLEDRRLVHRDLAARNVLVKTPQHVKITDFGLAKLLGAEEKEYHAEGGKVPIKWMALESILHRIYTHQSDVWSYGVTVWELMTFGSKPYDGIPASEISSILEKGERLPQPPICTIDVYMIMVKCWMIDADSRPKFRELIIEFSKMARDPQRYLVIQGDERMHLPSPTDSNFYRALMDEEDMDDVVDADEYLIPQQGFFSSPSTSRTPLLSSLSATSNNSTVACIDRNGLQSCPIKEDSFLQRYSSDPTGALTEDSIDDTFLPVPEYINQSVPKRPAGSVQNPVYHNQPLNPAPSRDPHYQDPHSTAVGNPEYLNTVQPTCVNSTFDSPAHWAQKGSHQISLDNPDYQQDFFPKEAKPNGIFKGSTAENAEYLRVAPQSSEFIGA
Procedure: as §1
as §2, with “EGFR” for “FLT-3”, “EGFR (His672-Ala1210)” for “FLT-3 (Arg571-Ser993)”, “Accession” for “accession”, “NM_005228)” for “NM_004119)”, “This biotinylated peptide contains the residues surrounding Tyr-66 of PTP1B,” for “Gastrin Precursor Biotinylated Peptide (with Tyr87 as phosphorylation site),”

[3] = molecular target: T3, human VEGFR-2 (Val789-Val1356) (Homo sapiens, UniProt P35968); assay: KDR kinase assay (HTScan VEGFR-2 kit, DELFIA); conditions: for inhibition at 1 µM: compound at 1 μM, read-out: KDR 1 μM, % of inhibition relative to control; for inhibition at 0.1 µM: compound at 0.1 μM, read-out: KDR 0.1 μM, % of inhibition relative to control
T3 construct: human VEGFR-2 (Val789-Val1356); GST (N); purchased Cell Signaling Technology; host or cells: baculovirus expression system
T3 sequence (P35968 789-1356): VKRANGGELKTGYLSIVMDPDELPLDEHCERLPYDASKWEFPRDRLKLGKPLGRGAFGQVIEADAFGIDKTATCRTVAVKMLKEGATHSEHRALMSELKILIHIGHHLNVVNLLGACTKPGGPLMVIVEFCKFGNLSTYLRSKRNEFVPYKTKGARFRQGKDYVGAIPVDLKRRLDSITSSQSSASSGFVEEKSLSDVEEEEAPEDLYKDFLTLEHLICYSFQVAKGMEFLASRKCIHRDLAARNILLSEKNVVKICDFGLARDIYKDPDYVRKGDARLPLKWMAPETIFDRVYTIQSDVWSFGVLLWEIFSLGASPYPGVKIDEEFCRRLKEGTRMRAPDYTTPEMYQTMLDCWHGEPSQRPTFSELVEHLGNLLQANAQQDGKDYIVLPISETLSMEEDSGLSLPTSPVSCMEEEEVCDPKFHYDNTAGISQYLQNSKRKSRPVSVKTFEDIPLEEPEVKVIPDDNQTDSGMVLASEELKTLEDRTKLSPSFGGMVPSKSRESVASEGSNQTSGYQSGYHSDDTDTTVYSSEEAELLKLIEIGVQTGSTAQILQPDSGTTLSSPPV
Procedure: as §1
The KDR assay was conducted following the protocol described in Protocol for HTScan® VEGFR-2 Kinase Assay Kit (Cell Signaling Technology®). The assay was conducted under the following conditions: KDR source: The GST-Kinase fusion protein was produced using a baculovirus expression system with a construct expressing human VEGFR-2 (Val789-Val1356) (GenBank Accession No. NM_002253) with an amino-terminal GST tag, substrate: 1.5 μM Gastrin Precursor Biotinylated Peptide (with Tyr87 as phosphorylation site), vehicle: 1% DMSO, pre-incubation time/temperature: 5 minutes at room temperature, incubation time/temperature: 30 minutes at room temperature, incubation buffer: 60 mM HEPES pH 7.5, 5 mM MgCl2, 5 mM MnCl2, 3 μM Na3VO4, 1.25 mM DTT, 20 μM ATP, and quantitative method: DELFIA® Assay.

[4] = molecular target: T4, human c-KIT (Thr544-Val976) (Homo sapiens, UniProt P10721); assay: c-KIT kinase assay (HTScan kit, DELFIA); conditions: for inhibition at 0.1 µM: compound at 0.1 μM, read-out: c-KIT 0.1 μM, % of inhibition relative to control; for inhibition at 1 µM: compound at 1 μM, read-out: c-KIT 1 μM, % of inhibition relative to control; for IC50: read-out: c-KIT kinase inhibition (IC50)
T4 construct: human c-KIT (Thr544-Val976); GST (N); purchased Cell Signaling Technology; host or cells: baculovirus expression system
T4 sequence (P10721 544-976): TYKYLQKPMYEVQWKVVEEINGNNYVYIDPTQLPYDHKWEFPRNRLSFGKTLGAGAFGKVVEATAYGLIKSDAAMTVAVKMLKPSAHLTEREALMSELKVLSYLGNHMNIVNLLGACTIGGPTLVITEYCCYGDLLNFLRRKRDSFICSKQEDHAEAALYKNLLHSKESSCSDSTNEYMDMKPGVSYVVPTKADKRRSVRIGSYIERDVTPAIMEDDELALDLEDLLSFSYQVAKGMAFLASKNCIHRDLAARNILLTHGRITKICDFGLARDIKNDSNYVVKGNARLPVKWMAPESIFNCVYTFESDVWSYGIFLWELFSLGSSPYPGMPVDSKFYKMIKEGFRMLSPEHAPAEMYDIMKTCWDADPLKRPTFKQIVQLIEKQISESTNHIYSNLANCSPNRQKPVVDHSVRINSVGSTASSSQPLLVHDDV
Procedure: as §1
as §2, with “c-KIT” for “FLT-3”, “GST-c-KIT” for “GST-kinase”, “c-KIT (Thr544-Val976)” for “FLT-3 (Arg571-Ser993) (GenBank accession No. NM_004119)”, “This biotinylated peptide contains the residues surrounding Tyr-996 of KDR,” for “Gastrin Precursor Biotinylated Peptide (with Tyr87 as phosphorylation site),”

SMILES | inhibition at 1 µM [1] | inhibition at 0.1 µM [2] | inhibition at 1 µM ([2]; compound at 1 μM, read-out: EGFR 1 μM, % of inhibition relative to control) | inhibition at 1 µM [3] | inhibition at 0.1 µM [1] | inhibition at 0.1 µM [4] | inhibition at 1 µM [4] | IC50 [1] | IC50 [4] | inhibition at 0.1 µM [3]
COc1ccc2c(c1)NC(=O)/C2=C\c1ccc2cccccc1-2 [Compound 31, 3-Azulen-1-ylmethylene-6-methoxy-1,3-dihydro-indol-2-one] | 14.9% | 0.2% | – | – | – | – | – | – | – | –
CN(C)c1nc2cccccc-2c1/C=C1/C(=O)Nc2ccccc21 [Compound 35, 3-(2-Dimethylamino-cyclohepta[b]pyrrol-3-ylmethylene)-1,3-dihydro-indol-2-one, with propan-2-ol] | – | 9.5% | 12.1% | 20.3% | – | – | – | – | – | –
CNS(=O)(=O)c1ccc2c(c1)/C(=C\c1cc(C)c3c(OCCCN(C)C)ccccc1-3)C(=O)N2 [Compound 88, 3-[4-(3-Dimethylamino-propoxy)-3-methyl-azulen-1-ylmethylene]-2-oxo-2,3-dihydro-1H-indole-5-sulfonic acid methylamide] | 47.3% | – | – | 16.8% | 24.2% | 19.3% | 19.3% | – | – | –
CCN(CC)CCCOc1ccccc2c(C=C3C(=O)Nc4ccc(F)cc43)cc(C)c1-2 [Compound 90, 3-[4-(3-Diethylamino-propoxy)-3-methyl-azulen-1-ylmethylene]-5-fluoro-1,3-dihydro-indol-2-one] | 85.5% | – | – | 32.8% | 33.9% | 83.2% | 83.2% | 10.1 nM | 77.9 nM | –
Cc1cc(C=C2C(=O)Nc3cc(F)ccc32)c2ccccc(OCCCN(C)C)c1-2 [Compound 91, 3-[4-(3-Dimethylamino-propoxy)-3-methyl-azulen-1-ylmethylene]-6-fluoro-1,3-dihydro-indol-2-one] | 52.4% | – | – | 9.4% | 15.2% | 56.5% | 56.5% | – | – | 1.1%
Cc1cc(C=C2C(=O)Nc3cc(C(F)(F)F)ccc32)c2ccccc(OCCCN(C)C)c1-2 [Compound 94, 3-[4-(3-Dimethylamino-propoxy)-3-methyl-azulen-1-ylmethylene]-6-trifluoromethyl-1,3-dihydro-indol-2-one] | 14.4% | – | – | 52.4% | 6.5% | 47.6% | 47.6% | – | – | 35.8%
Cc1cc(/C=C2\C(=O)Nc3ccc(F)cc32)c2ccccc(OCCCN(C)C)c1-2 [Compound 95, 3-[4-(3-Dimethylamino-propoxy)-3-methyl-azulen-1-ylmethylene]-5-fluoro-1,3-dihydro-indol-2-one] | 98.4% | – | – | 93.6% | 70.9% | 65.1% | 65.1% | 9.3 nM | 158 nM | 35.5%

More lines, now with the values ahead:

inhibition at 1 µM [1] | inhibition at 0.1 µM [2] | inhibition at 1 µM ([2]; compound at 1 μM, read-out: EGFR 1 μM, % of inhibition relative to control) | inhibition at 1 µM [3] | inhibition at 0.1 µM [1] | inhibition at 0.1 µM [4] | inhibition at 1 µM [4] | IC50 [1] | IC50 [4] | inhibition at 0.1 µM [3] | SMILES
97.2% | – | – | 89.8% | 68.9% | 58% | 58% | – | – | 29.3% | Cc1cc(C=C2C(=O)Nc3ccc(F)cc32)c2ccccc(OCCCN3CCN(C)CC3)c1-2 [Compound 96, 5-Fluoro-3-{3-methyl-4-[3-(4-methyl-piperazin-1-yl)-propoxy]-azulen-1-ylmethylene}-1,3-dihydro-indol-2-one]
23.9% | – | – | 41.8% | 19.1% | 30.6% | 30.6% | – | – | 30.5% | CCOC(=O)N1CCC(Nc2ccc3c(c2)NC(=O)/C3=C/c2cc(C)c3c(OCCCN(C)C)ccccc2-3)CC1 [Compound 97, 4-{3-[4-(3-Dimethylamino-propoxy)-3-methyl-azulen-1-ylmethylene]-2-oxo-2,3-dihydro-1H-indol-6-ylamino}-piperidine-1-carboxylic acid ethyl ester]
85.4% | – | – | 80.3% | 46.1% | 60.4% | 60.4% | – | – | 38.6% | Cc1cc(C=C2C(=O)Nc3ccccc32)c2ccccc(OCCCN(C)C)c1-2 [Compound 98, 3-[4-(3-Dimethylamino-propoxy)-3-methyl-azulen-1-ylmethylene]-1,3-dihydro-indol-2-one]
59.4% | – | – | 73.9% | 7.3% | 34.4% | 34.4% | – | – | 28.7% | Cc1cc(C=C2C(=O)Nc3c(F)cccc32)c2ccccc(OCCCN(C)C)c1-2 [Compound 99, 3-[4-(3-Dimethylamino-propoxy)-3-methyl-azulen-1-ylmethylene]-7-fluoro-1,3-dihydro-indol-2-one]
89.1% | – | – | 73.2% | 64.9% | 48.1% | 48.1% | – | – | 33.3% | Cc1cc(C=C2C(=O)Nc3ccc(C(F)(F)F)cc32)c2ccccc(OCCCN(C)C)c1-2 [Compound 100, 3-[4-(3-Dimethylamino-propoxy)-3-methyl-azulen-1-ylmethylene]-5-trifluoromethyl-1,3-dihydro-indol-2-one]
44.8% | – | – | 88% | 14.6% | 42.5% | 57.4% | – | – | 30.1% | Cc1cc(C=C2C(=O)Nc3ncccc32)c2ccccc(OCCCN(C)C)c1-2 [Compound 104, 3-(((3aZ,5Z,7E)-8-(3-(dimethylamino)propoxy)-1-methylazulen-3-yl)methylene)-1H-pyrrolo[2,3-b]pyridin-2(3H)-one]
